In ChEMBL document CHEMBL4507276 (2021):

Experiments:
[1] = biological target: Tyrosine-protein kinase Fer (Homo sapiens) (UniProt P16591); assay: FER Invitrogen selectivity data (BI); settings: Compound concentration 3.0 uM
[2] = biological target: T1, Muscarinic acetylcholine receptor M4 (Homo sapiens) (UniProt P08173); assay: M4/H Cerep selectivity data (BI); settings: Compound concentration 20.0 uM
T1 sequence (whole entry): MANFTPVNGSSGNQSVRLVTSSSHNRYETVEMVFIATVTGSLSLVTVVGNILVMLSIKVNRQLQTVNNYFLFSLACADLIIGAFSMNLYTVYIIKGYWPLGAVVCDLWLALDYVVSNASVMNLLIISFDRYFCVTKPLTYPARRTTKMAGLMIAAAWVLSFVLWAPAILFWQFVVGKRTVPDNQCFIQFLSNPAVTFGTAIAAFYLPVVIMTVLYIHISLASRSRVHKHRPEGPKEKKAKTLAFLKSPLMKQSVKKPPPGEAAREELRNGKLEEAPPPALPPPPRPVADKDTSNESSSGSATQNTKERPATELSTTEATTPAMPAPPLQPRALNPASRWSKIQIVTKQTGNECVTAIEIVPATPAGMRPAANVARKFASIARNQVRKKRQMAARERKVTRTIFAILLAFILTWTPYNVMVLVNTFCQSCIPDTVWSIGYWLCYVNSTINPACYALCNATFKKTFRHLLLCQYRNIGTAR

[3] = biological target: Serine/threonine-protein kinase PLK3 (Homo sapiens) (UniProt Q9H4B4); assay: PLK3 Invitrogen selectivity data (BI); settings: Compound concentration 3.0 uM
Chain of Serine/threonine-protein kinase PLK3 (Homo sapiens) (Q9H4B4 whole entry, looked up): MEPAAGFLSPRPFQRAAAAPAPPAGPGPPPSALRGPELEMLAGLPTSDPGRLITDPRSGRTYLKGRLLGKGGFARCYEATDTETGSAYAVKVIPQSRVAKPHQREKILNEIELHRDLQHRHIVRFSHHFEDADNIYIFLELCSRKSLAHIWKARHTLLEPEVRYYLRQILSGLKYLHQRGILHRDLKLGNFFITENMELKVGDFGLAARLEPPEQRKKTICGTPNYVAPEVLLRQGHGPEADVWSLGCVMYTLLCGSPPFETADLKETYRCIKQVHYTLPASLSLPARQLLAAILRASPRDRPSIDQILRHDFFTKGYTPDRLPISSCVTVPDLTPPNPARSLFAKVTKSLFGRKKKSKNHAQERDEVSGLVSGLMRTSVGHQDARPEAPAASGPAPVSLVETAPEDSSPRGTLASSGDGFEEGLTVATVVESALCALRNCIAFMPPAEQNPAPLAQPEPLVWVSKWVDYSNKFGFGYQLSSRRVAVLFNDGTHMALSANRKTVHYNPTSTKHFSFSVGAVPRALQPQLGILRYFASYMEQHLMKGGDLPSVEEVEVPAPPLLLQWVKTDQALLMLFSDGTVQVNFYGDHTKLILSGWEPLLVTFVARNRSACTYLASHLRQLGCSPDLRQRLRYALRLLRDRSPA

[4] = biological target: T2, 5-hydroxytryptamine receptor 3A (Homo sapiens) (UniProt P46098); assay: 5HT3/H Cerep selectivity data (BI); settings: Compound concentration 20.0 uM
T2 sequence (whole entry): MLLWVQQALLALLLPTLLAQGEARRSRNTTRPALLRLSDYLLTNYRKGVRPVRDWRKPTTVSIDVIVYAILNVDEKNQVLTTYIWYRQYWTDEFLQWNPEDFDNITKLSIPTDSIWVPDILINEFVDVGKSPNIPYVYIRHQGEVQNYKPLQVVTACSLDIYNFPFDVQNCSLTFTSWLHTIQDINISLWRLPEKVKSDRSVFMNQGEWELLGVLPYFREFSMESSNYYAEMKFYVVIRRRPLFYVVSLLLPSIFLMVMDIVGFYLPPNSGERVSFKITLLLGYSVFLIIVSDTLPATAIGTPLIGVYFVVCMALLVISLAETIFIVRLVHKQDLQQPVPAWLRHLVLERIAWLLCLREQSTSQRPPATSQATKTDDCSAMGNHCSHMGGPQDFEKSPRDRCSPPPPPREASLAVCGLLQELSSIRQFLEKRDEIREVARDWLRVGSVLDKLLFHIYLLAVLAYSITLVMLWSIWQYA

[5] = biological target: 3',5'-cyclic-AMP phosphodiesterase 4D (Homo sapiens) (UniProt Q08499); assay: PDE4D2 Cerep selectivity data (BI); settings: Compound concentration 20.0 uM
Chain of 3',5'-cyclic-AMP phosphodiesterase 4D (Homo sapiens) (Q08499 whole entry): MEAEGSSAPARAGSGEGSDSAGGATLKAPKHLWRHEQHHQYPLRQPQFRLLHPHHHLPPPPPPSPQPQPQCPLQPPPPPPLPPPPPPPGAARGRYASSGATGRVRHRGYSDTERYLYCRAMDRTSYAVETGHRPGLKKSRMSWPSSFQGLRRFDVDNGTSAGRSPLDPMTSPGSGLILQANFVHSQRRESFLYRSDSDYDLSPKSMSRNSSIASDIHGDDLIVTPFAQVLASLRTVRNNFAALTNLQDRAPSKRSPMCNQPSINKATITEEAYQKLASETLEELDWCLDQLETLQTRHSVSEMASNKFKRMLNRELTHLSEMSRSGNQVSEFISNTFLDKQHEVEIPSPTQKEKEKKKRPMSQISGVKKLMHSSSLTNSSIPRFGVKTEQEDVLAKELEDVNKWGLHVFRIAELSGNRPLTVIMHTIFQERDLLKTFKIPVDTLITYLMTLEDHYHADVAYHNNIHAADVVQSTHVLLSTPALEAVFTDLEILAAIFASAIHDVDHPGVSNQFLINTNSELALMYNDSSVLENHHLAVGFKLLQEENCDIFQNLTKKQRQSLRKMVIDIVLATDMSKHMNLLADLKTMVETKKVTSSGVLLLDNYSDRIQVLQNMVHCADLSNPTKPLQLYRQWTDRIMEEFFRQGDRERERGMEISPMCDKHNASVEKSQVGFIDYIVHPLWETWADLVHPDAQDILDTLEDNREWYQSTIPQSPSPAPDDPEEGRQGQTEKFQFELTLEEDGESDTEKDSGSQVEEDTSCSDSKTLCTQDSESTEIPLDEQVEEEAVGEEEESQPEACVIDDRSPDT

[6] = biological target: T3, 5-hydroxytryptamine receptor 1A (Homo sapiens) (UniProt P08908); assay: 5HT1A/HU Eurofins-Panlabs selectivity data (BI); settings: Compound concentration 10.0 uM
T3 sequence (whole entry): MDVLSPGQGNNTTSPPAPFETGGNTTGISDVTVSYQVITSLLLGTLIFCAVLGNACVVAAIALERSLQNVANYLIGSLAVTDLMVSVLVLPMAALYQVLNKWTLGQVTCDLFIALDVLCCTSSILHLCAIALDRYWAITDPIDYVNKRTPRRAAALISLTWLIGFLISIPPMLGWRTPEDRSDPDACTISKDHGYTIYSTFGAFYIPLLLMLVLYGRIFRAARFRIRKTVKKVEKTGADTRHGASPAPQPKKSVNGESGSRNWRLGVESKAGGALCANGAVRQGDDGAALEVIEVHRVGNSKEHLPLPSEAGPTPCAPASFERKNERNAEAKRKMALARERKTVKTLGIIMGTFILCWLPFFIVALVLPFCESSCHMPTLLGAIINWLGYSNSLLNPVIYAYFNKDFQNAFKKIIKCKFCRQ

[7] = biological target: T4, Mitogen-activated protein kinase kinase kinase 3 (Homo sapiens) (UniProt Q99759); assay: MAP3K3 Invitrogen selectivity data (BI); settings: Compound concentration 3.0 uM
T4 sequence (whole entry): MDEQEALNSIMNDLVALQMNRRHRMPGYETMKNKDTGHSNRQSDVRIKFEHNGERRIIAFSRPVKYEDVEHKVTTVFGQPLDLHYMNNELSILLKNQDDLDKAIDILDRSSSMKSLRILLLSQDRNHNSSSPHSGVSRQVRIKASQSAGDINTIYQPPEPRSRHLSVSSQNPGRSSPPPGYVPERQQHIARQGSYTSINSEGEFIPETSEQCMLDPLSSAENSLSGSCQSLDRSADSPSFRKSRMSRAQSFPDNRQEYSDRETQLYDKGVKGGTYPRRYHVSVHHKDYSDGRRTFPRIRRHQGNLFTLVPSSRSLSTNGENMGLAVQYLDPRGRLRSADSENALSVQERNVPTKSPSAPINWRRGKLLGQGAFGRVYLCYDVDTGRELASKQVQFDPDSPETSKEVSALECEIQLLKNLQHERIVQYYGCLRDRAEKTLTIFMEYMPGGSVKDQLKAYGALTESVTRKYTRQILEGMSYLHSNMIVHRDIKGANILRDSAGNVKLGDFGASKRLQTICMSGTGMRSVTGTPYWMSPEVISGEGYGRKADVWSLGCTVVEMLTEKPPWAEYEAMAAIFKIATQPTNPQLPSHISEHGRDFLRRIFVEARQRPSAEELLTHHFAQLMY

[8] = biological target: T5, Serine/threonine-protein kinase NLK (Homo sapiens) (UniProt Q9UBE8); assay: NLK Invitrogen selectivity data (BI); settings: Compound concentration 3.0 uM
T5 sequence (whole entry): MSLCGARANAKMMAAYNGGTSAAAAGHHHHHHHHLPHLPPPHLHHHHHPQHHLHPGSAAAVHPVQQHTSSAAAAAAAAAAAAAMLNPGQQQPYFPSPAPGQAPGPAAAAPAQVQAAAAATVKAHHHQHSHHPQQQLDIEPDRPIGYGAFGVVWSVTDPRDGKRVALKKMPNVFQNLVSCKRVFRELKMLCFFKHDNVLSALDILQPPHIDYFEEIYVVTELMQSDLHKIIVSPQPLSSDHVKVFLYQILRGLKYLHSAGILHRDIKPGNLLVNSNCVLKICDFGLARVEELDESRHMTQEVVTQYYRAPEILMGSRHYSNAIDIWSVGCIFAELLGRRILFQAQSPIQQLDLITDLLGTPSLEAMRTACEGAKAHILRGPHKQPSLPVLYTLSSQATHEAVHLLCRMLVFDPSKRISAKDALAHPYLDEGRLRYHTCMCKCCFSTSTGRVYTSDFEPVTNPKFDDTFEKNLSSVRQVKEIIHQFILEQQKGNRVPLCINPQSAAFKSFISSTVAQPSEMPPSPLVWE

Measured: residual activity

Chain of Tyrosine-protein kinase Fer (Homo sapiens) (P16591 whole entry, looked up): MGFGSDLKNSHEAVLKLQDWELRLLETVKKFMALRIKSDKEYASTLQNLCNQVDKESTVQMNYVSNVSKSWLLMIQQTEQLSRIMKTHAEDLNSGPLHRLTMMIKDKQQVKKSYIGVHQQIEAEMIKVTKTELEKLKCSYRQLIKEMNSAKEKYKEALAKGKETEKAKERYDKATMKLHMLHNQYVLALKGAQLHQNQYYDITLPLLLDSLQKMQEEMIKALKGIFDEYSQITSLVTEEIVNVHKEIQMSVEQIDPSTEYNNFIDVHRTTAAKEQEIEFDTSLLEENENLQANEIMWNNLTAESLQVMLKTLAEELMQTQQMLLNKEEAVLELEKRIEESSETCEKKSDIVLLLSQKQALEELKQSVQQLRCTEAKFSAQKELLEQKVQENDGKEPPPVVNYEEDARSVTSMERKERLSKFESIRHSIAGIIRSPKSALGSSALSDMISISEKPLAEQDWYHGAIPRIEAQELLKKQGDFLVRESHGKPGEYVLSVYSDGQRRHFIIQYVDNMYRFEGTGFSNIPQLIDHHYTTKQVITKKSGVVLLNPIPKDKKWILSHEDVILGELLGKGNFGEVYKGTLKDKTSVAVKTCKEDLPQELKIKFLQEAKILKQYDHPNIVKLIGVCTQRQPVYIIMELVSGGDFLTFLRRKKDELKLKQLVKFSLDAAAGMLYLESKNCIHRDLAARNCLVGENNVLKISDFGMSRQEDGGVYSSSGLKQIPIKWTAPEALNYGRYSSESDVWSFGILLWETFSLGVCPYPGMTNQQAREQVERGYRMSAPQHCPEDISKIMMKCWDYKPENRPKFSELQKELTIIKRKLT

CN(C)C(=O)Cn1cc(-c2nc([C@@](C)(c3ccc(-c4cnc(N)nc4)cc3)C3CC3)no2)cn1 [BI 665915]
inactive: [1] 98.5% | [2] 103% | [3] 98% | [4] 100% | [5] 82% | [6] 127% | [7] 101% | [8] 93%
